Usually IC50 stands for the concentration at which inhibition is half-maximal.

The structures appear in SMILES notation. Read-outs that look alike come from different tables or passages of the source.

The experiment deals with urease (Jack bean) (Canavalia ensiformis, UniProt P07374). Put plainly: in vitro urease inhibition, indophenol method. It counts as biochemical.
Sequence of urease (Jack bean) (P07374 whole entry, looked up): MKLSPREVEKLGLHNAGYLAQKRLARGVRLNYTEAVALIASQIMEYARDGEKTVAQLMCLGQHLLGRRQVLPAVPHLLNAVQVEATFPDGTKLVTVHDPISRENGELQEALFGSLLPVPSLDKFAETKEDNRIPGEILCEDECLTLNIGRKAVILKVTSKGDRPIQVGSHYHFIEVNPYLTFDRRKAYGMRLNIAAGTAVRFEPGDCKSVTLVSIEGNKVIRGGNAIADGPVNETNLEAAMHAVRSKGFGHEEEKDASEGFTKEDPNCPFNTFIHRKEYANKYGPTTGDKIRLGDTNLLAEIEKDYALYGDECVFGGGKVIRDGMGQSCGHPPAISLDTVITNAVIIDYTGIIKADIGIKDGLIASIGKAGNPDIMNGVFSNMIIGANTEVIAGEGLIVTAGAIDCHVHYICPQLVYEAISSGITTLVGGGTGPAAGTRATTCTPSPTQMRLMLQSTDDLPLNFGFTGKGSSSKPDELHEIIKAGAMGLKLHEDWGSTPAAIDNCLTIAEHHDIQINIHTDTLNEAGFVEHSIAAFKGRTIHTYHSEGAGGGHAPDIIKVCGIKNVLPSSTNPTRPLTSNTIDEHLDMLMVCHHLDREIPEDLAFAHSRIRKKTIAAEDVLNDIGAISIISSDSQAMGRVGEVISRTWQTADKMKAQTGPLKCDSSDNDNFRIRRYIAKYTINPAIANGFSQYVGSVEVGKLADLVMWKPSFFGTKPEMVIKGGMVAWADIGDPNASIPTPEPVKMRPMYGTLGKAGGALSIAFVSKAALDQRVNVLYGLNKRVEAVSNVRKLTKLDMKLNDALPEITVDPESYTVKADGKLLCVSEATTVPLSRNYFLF

Turning to `CC(C)(C)NC(=S)NNC(=O)C12CC3CC(CC(C3)C1)C2` [compound 1, 2-(Adamantane-1-carbonyl)-N-(tert-butyl)hydrazine-1-carbothioamide], half-maximal inhibition (IC50) was put at 1.2 ± 0.07 µM. Take `O=C(NNC(=S)NC1CCCCC1)C12CC3CC(CC(C3)C1)C2` [compound 2, 2-(Adamantane-1-carbonyl)-N-cyclohexylhydrazine-1-carbothioamide]: for the setting “read-out: IC50 ± SEM (μM) *”, the IC50 was found to be 2.44 ± 0.11 µM.

Source of the values: publication PMC9741201, “X-ray Structures and Computational Studies of Two Bioactive 2-(Adamantane-1-carbonyl)-N-substituted Hydrazine-1-carbothioamides” (Molecules, 2022).
